# Experimental data: patent publication US4863899A, “Biologically active polypeptides” (priority 1987, dated 1989)
# Tests used:
# [1] = tested on: 125I-labeled rat TGF binding to EGF receptors of A431 cells; test: Binding of 125I-labeled rat TGF to A431 cells; design: species or system human
# Description: was synthesized using the solid-phase technique of Ohgak et al. (1983) Journal of Immunol. Meth. 57, pp. 171-184. This oligopeptide was then coupled to keyhole limpet hemocyanin in accordance with the procedure of Baron et al. (1982) Cell 28, pp. 395-404, and used to immunize rabbits (Baron et al. (1982) Cell 28, pp. 395-404) and sheep (Lerner (1982) Nature 299, pp. 592-596). Antisera were assayed against peptide by a peroxidase-linked immunoassay (Kirkegaard and Perry Laboratories, Gaithersberg, Md.) and against homogeneous rat TGF (purified according to Example II above), by immunoprecipitation (Bister et al. (1980) J. Virol. 36, pp. 617-621) and Western blotting techniques (Burnett (1981) Analyt. Biochem. 112, pp. 195-203). Binding of ^125 I-labeled rat TGF and mouse EGF (Bethesda Research Labs, Bethesda, Md.) to A431 cells grown in 96-well microtiter plates was as described in Pross et al. (1977) Proc. Natl. Acad. Sci. U.S.A. 74, pp. 3918-3921.
# Human epidermoid carcinoma A431 cells have in excess of 10^6 EGF receptors per cell (Fabricant et al. (1977) Proc. Natl. Acad. Sci. U.S.A. 74, pp. 565-569). TGF competes with EGF for binding to these receptors. Binding of ^125 I-labeled rat TGF to these cells was blocked by an excess of unlabeled EGF and by antiserum to peptide. […]
# [2] = tested on: anti-KLH-peptide 1 IgG; test: Solid phase RIA, 125I anti-KLH-peptide 1 IgG on BSA-peptide 1; type: binding, rabbit
# Description: TGF peptide 1 was coupled to keyhole limpet hemocyanin (KLH) or bovine serum albumin (BSA) by thiol/maleimide linkage (King et al. (1979) J. Immunol. Methods 28, pp. 201-206). Carrier-peptide complexes were purified by gel filtration. An average of 60 moles peptide/mole KLH and 20 moles peptide/mole BSA was achieved. Rabbits were immunized with the KLH-peptide 1 conjugate by multiple subcutaneous (s.c.) and intramuscular (i.m.) injections of 2 mg protein in complete Freund's adjuvant. Rabbits were boosted s.c. every two weeks with the immunogen in incomplete Freund's adjuvant. The IgG fraction of the antiserum after 5 boosts was used for immunoassays and radiolabeled using Na^125 I (NEN) and Enzymobeads (Bio-Rad) to 4×10^5 cpm/μg protein. Polyvinyl chloride 96-well plates (Costar) were coated with 200 μg/mL BSA-peptide 1 conjugate and countercoated with 10% normal rabbit serum in phosphate-buffered saline. Plates were incubated for 4 hours at 37° C. with [^125 I]anti-KLH-peptide 1 IgG (50,000 cpm/well) in the presence or absence of inhibitors, washed and individual wells were counted.
# [3] = tested on: normal rat kidney cells; type: cell-based; details: on a ng equivalent basis
# [4] = tested on: antiserum against peptide III; test: Radioimmunoassay, inhibition of precipitation of 125I-peptide III; type: binding, rabbit
# Description: Rabbits were immunized by subcutaneous injection of 1 mg of conjugate injected subcutaneously at four separate sites. Two booster injections were administered at bi-weekly intervals following the initial injection. The serum used in this study was collected eighty days after the initial injection. An immunoglobulin fraction of this serum was prepared by ammonium sulfate precipitation. The product of antibodies specific for immunizing peptide was monitored with a solid phase enzyme-linked immunoabsorbent assay.
# Reactants were mixed in a final volume of 50 microliters of a solution containing: 20 mM sodium phosphate, at pH 7.4; 200 mM NaCl: 40 mM dithiothreitol; 0.1% (w:v) BSA; 0.1% (w:v) NaN3 : ^125 I-peptide III; (10^4 cpm); antiserum at a final dilution of 1/15,000; and other additions, as specified. The reaction was initiated by the addition of antiserum and continued at 23° C. for 90 minutes. An equal volume of 10% formalin-fixed Staphalococcus A (Pansorbin, Calbiochem) was then added and incubation was continued for an additional 30 minutes at 23° C. The immunoadsorbant was removed by sedimentation through a cushion of 10% (w:v) sucrose and the amount of bound ^125 I-peptide III was determined using a gamma counter. Under these conditions, approximately 25% of ^125 I-peptide was bound by antibody in the absence of competitor. The amount of bound peptide III was corrected for non-specific binding measured in the absence of antibody (less than 5% of the total) and expressed as a percentage of maximal binding. Concentrations of competitors were expressed as the amount of peptide III required to give an equivalent inhibition of precipitation.
# [5] = tested on: normal rat kidney fibroblasts, clone 49F; test: Soft agar growth assay; type: cell-based; details: tested with up to 10 μg
# Description: The assay for colony growth in soft agar, using normal rat kidney fibroblasts, clone 49F, was performed as reported in Todaro et al. (1980) Proc. Natl. Acad. Sci. USA 77, pp. 5258-5262. Lyophilized samples to be tested were reconstituted in 0.5 ml of Dulbecco's modified Eagle's medium, supplemented with 10% calf serum. 1.5 ml of 0.5% (w/v) agar (Difco) in the supplemented medium and 0.5 ml of supplemented medium containing 2.3×10^4 cells were added. 2.3 ml of the resultant mixture were pipetted on a 2-ml base layer (0-5% agar in supplemented medium) in 60-mm Petri dishes (Falcon). The cells were incubated at 37° C. in a humidified 5% CO2 /95% air atmosphere. The assay was read unfixed and unstained at 5 days and at 10-14 days.
# [6] = molecular target: T1, EGF receptor (Homo sapiens, UniProt P00533); test: 125I-EGF radioreceptor assay on formalin-fixed A431 human carcinoma cells; type: binding
# T1 construct: subconfluent monolayers of formalin-fixed A431 human carcinoma cells; endogenous in cells; host or cells: A431 human carcinoma cells, formalin-fixed
# Description: The fixed cells were washed twice with 0.5 ml of binding buffer (Dulbecco's modified Eagle's medium containing 1 mg/ml of bovine serum albumin and 50 mM 2-[bis(2-hydroxyethyl)amino]ethanesulfonic acid, pH 6.8).
# TGF was quantitated in a radioreceptor assay based on receptor cross-reactivity with mouse submaxillary gland epidermal growth factor (mEGF).
# [7] = tested on: mink fibroblasts
substance,measurement,setting,value
EGF: mouse submaxillary gland epidermal growth factor,binding of 125I-labeled rat TGF to A431 cells,[1],blocked
same,inhibition of antibody reaction with BSA-TGF peptide,[2],did not cause significant inhibition
same,colonies in soft agar,[3],120 colonies
same,highest concentration without inhibition of precipitation of 125I-peptide III,[4],greater than 1 μM
same,Relative Inhibitory Activity,"[4]; half-maximal inhibitory concentration relative to peptide III, standard RIA, > = highest concentration tested",> 1500
same,stimulation of growth in soft agar,[5],does not stimulate growth
same,amount required to inhibit EGF binding by 50%,"[6]; 0.4 ng 125I-EGF, 1 h at 22° C.",1.1 ng
same,IC50,"[6]; 125I-EGF at 0.33 nM (Example XI), read-out: concentration giving half-maximal inhibition of 125I-EGF binding",0.3 to 0.5 nM
same,increase in DNA synthesis relative to unstimulated serum deprived cells,[7],59%
